Measurements from ChEMBL document CHEMBL1201862, “PubChem BioAssay data set” (2004).
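Step 1: Grow cells in 96-well plates. Step 2: Expose to compound for 48 hours at 5 concentrations. Step 3: Interpolate endpoints linearly; if unreached, use highest concentration. The concentration for 50% growth inhibition is given as GI50.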 Calls of active or inactive are those of the source. Cut-off read from the data, not from the text of the source: active = GI50 up to about 1.1 µM and inactive = higher.

Tests used:
Test in all cases: NCI-60 cell line screen, 48 h
HCT-15 = system: HCT-15
BT-549 = system: BT-549
SK-OV-3 = system: SK-OV-3
SF-268 = system: SF-268
M14 = system: M14
UACC-62 = system: UACC-62
K562 = system: K562
786-0 = system: 786-0
SW-620 = system: SW-620
HT-29 = system: HT-29
COLO 205 = system: COLO 205
OVCAR-8 = system: OVCAR-8
T47D = system: T47D
UACC-257 = system: UACC-257
OVCAR-5 = system: OVCAR-5
HOP-62 = system: HOP-62
OVCAR-3 = system: OVCAR-3
LOX IMVI = system: LOX IMVI
A549 = system: A549
MDA-N = system: MDA-N
SF-539 = system: SF-539
NCI/ADR-RES = system: NCI/ADR-RES
RXF 393 = system: RXF 393
PC-3 = system: PC-3
A498 = system: A498
NCI-H522 = system: NCI-H522
RPMI-8226 = system: RPMI-8226
SN12C = system: SN12C
CCRF-CEM = system: CCRF-CEM
NCI-H460 = system: NCI-H460
IGROV-1 = system: IGROV-1
TK-10 = system: TK-10
Hs-578T = system: Hs-578T
SK-MEL-2 = system: SK-MEL-2
CAKI-1 = system: CAKI-1
MOLT-4 = system: MOLT-4
Malme-3M = system: Malme-3M
DU-145 = system: DU-145
MDA-MB-435 = system: MDA-MB-435
MDA-MB-231 = system: MDA-MB-231
SK-MEL-28 = system: SK-MEL-28
EKVX = system: EKVX
HCT-116 = system: HCT-116
KM12 = system: KM12
HCC 2998 = system: HCC 2998
U-251 = system: U-251
SNB-75 = system: SNB-75
HOP-92 = system: HOP-92
NCI-H23 = system: NCI-H23
SK-MEL-5 = system: SK-MEL-5
SR = system: SR
ACHN = system: ACHN
SF-295 = system: SF-295
SNB-19 = system: SNB-19
OVCAR-4 = system: OVCAR-4
UO-31 = system: UO-31
NCI-H226 = system: NCI-H226
MCF7 = system: MCF7
HL-60 = system: HL-60

Measured: GI50

CCC(C)N1CN(c2ccccc2)C2(CCN(CCCC3(c4ccc(F)cc4)OCCO3)CC2)C1=O (stereo not drawn)
active: HOP-92 < 0.01 µM
inactive: BT-549 2 µM | SK-OV-3 21 µM | SF-268 17.7 µM | M14 5.97 µM | UACC-62 23.3 µM | K562 8.24 µM | 786-0 5.53 µM | SW-620 11.6 µM | HT-29 2.87 µM | COLO 205 3.75 µM | OVCAR-8 7.64 µM | T47D 8.28 µM | UACC-257 1.98 µM | OVCAR-5 8.61 µM | HOP-62 13.2 µM | OVCAR-3 14.7 µM | LOX IMVI 7.73 µM | A549 7.73 µM | MDA-N 7.14 µM | SF-539 5.5 µM | NCI/ADR-RES 13.3 µM | RXF 393 13 µM | PC-3 6.05 µM | A498 22.2 µM | NCI-H522 5.11 µM | RPMI-8226 1.89 µM | SN12C 7.24 µM | CCRF-CEM 3.6 µM | NCI-H460 14.8 µM | IGROV-1 16.5 µM | TK-10 7.5 µM | Hs-578T 6.15 µM | SK-MEL-2 11.9 µM | CAKI-1 > 52 µM | MOLT-4 2.61 µM | Malme-3M 5.19 µM | DU-145 17.6 µM | MDA-MB-435 18.8 µM | MDA-MB-231 13.4 µM | SK-MEL-28 17.6 µM | EKVX 6.14 µM | HCT-116 11.9 µM | KM12 20.6 µM | HCC 2998 12.9 µM | U-251 5.86 µM | SNB-75 6.05 µM | NCI-H23 3.34 µM | SK-MEL-5 3.88 µM | SR 6.34 µM | ACHN 6.61 µM | SF-295 5.57 µM | SNB-19 12.4 µM | OVCAR-4 22.6 µM | UO-31 5.09 µM | NCI-H226 16.7 µM | MCF7 3.3 µM | HL-60 6.47 µM
4.75 µM: HCT-15

CSC12c3cc(C)n(-c4ccc(I)cc4)c3CC(C)(C)CN1C(=O)C2Oc1ccccc1 (stereo not drawn)
> 100 µM: HCT-15
inactive: BT-549 > 100 µM | SK-OV-3 > 100 µM | SF-268 > 100 µM | M14 > 100 µM | UACC-62 > 100 µM | K562 > 87.1 µM | 786-0 > 100 µM | SW-620 > 100 µM | HT-29 > 100 µM | COLO 205 > 100 µM | OVCAR-8 > 100 µM | T47D 5.97 µM | UACC-257 > 66.5 µM | OVCAR-5 > 100 µM | HOP-62 > 100 µM | OVCAR-3 > 100 µM | LOX IMVI > 100 µM | A549 > 96.4 µM | MDA-N > 100 µM | SF-539 > 100 µM | NCI/ADR-RES > 100 µM | RXF 393 > 100 µM | PC-3 98.6 µM | A498 97.5 µM | NCI-H522 > 100 µM | RPMI-8226 > 71.1 µM | SN12C > 100 µM | CCRF-CEM > 100 µM | NCI-H460 > 100 µM | IGROV-1 > 100 µM | TK-10 > 100 µM | Hs-578T > 100 µM | SK-MEL-2 > 100 µM | CAKI-1 > 100 µM | MOLT-4 > 63.1 µM | Malme-3M > 100 µM | DU-145 > 100 µM | MDA-MB-435 > 100 µM | MDA-MB-231 > 100 µM | SK-MEL-28 > 100 µM | EKVX > 67 µM | HCT-116 48.6 µM | KM12 > 100 µM | HCC 2998 > 100 µM | U-251 > 100 µM | SNB-75 > 100 µM | HOP-92 > 100 µM | NCI-H23 > 100 µM | SK-MEL-5 97.5 µM | SR > 91.2 µM | ACHN > 100 µM | SF-295 > 100 µM | SNB-19 > 100 µM | OVCAR-4 > 100 µM | UO-31 > 100 µM | NCI-H226 > 100 µM | MCF7 14.1 µM | HL-60 93.3 µM
